Laboratory results as given in ChEMBL document CHEMBL4507266, “Data for DCP probe BAY-784” (2021).

Columns and labels:
[1] = target: Serine/threonine-protein kinase NLK (Homo sapiens) (UniProt Q9UBE8); conditions: Compound concentration 1000.0 nM
[2] = target: Interleukin-1 receptor-associated kinase 1 (Homo sapiens) (UniProt P51617); conditions: Compound concentration 1000.0 nM
[3] = target: Mitogen-activated protein kinase 8 (Homo sapiens) (UniProt P45983); conditions: Compound concentration 1000.0 nM
[4] = target: Serine/threonine-protein kinase SBK1 (Homo sapiens) (UniProt Q52WX2); conditions: Compound concentration 1000.0 nM
[5] = target: Mitogen-activated protein kinase kinase kinase 10 (Homo sapiens) (UniProt Q02779); conditions: Compound concentration 1000.0 nM
[6] = target: Serine/threonine-protein kinase RIO3 (Homo sapiens) (UniProt O14730); conditions: Compound concentration 1000.0 nM
[7] = target: Mast/stem cell growth factor receptor Kit (Homo sapiens) (UniProt P10721); conditions: Compound concentration 1000.0 nM
[8] = target: MAP/microtubule affinity-regulating kinase 3 (Homo sapiens) (UniProt P27448); conditions: Compound concentration 1000.0 nM
[9] = target: Serine/threonine-protein kinase DCLK1 (Homo sapiens) (UniProt O15075); conditions: Compound concentration 1000.0 nM
[10] = target: Inhibitor of nuclear factor kappa-B kinase subunit epsilon (Homo sapiens) (UniProt Q14164); conditions: Compound concentration 1000.0 nM
[11] = target: TRAF2 and NCK-interacting protein kinase (Homo sapiens) (UniProt Q9UKE5); conditions: Compound concentration 1000.0 nM
[12] = tested on: Receptor-type tyrosine-protein kinase FLT3 (Homo sapiens), P36888 [D835H]; conditions: Compound concentration 1000.0 nM
[13] = target: Calcium/calmodulin-dependent protein kinase kinase 1 (Homo sapiens) (UniProt Q8N5S9); conditions: Compound concentration 1000.0 nM
[14] = target: Homeodomain-interacting protein kinase 2 (Homo sapiens) (UniProt Q9H2X6); conditions: Compound concentration 1000.0 nM
[15] = target: Serine/threonine-protein kinase Chk1 (Homo sapiens) (UniProt O14757); conditions: Compound concentration 1000.0 nM
[16] = target: Casein kinase I isoform gamma-2 (Homo sapiens) (UniProt P78368); conditions: Compound concentration 1000.0 nM
[17] = target: Serine/threonine-protein kinase WNK4 (Homo sapiens) (UniProt Q96J92); conditions: Compound concentration 1000.0 nM
[18] = target: Mitogen-activated protein kinase kinase kinase 19 (Homo sapiens) (UniProt Q56UN5); conditions: Compound concentration 1000.0 nM
[19] = target: Calcium/calmodulin-dependent protein kinase type II subunit alpha (Homo sapiens) (UniProt Q9UQM7); conditions: Compound concentration 1000.0 nM
[20] = target: Platelet-derived growth factor receptor beta (Homo sapiens) (UniProt P09619); conditions: Compound concentration 1000.0 nM
[21] = target: Dual specificity protein kinase CLK2 (Homo sapiens) (UniProt P49760); conditions: Compound concentration 1000.0 nM
[22] = target: Calcium/calmodulin-dependent protein kinase type 1 (Homo sapiens) (UniProt Q14012); conditions: Compound concentration 1000.0 nM
[23] = target: Tyrosine-protein kinase Mer (Homo sapiens) (UniProt Q12866); conditions: Compound concentration 1000.0 nM
[24] = target: Tyrosine-protein kinase Tec (Homo sapiens) (UniProt P42680); conditions: Compound concentration 1000.0 nM
[25] = tested on: Epidermal growth factor receptor (Homo sapiens), P00533 [L858R,T790M]; conditions: Compound concentration 1000.0 nM
[26] = target: Mitogen-activated protein kinase kinase kinase 20 (Homo sapiens) (UniProt Q9NYL2); conditions: Compound concentration 1000.0 nM
[27] = tested on: Tyrosine-protein kinase ABL1 (Homo sapiens), P00519 [E255K]; conditions: Compound concentration 1000.0 nM
[28] = target: 5-hydroxytryptamine receptor 7 (Homo sapiens) (UniProt P34969); conditions: Compound concentration 10.0 uM
[29] = target: T1, Alpha-1D adrenergic receptor (Homo sapiens) (UniProt P25100); conditions: Compound concentration 10.0 uM
T1 sequence (whole entry): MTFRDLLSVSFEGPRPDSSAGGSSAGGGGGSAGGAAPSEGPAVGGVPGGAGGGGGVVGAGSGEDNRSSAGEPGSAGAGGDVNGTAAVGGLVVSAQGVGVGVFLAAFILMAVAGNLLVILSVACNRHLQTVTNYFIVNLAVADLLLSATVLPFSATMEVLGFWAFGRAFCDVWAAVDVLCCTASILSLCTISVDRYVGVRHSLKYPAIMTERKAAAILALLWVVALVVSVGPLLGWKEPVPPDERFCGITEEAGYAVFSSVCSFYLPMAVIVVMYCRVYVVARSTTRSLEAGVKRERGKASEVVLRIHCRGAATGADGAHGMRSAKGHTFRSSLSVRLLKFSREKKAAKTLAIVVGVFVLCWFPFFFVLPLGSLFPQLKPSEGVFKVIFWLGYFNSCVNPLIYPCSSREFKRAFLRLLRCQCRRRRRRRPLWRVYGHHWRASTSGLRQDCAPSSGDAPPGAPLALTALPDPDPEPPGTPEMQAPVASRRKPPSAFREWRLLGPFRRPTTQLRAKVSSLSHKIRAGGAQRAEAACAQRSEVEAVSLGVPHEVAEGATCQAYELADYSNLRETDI

[30] = target: Ephrin type-A receptor 2 (Homo sapiens) (UniProt P29317); conditions: Compound concentration 1000.0 nM
[31] = target: Dual specificity protein kinase CLK3 (Homo sapiens) (UniProt P49761); conditions: Compound concentration 1000.0 nM
[32] = target: Microtubule-associated serine/threonine-protein kinase 1 (Homo sapiens) (UniProt Q9Y2H9); conditions: Compound concentration 1000.0 nM
[33] = target: RAC-beta serine/threonine-protein kinase (Homo sapiens) (UniProt P31751); conditions: Compound concentration 1000.0 nM
[34] = target: Activin receptor type-1 (Homo sapiens) (UniProt Q04771); conditions: Compound concentration 1000.0 nM
[35] = target: Serine/threonine-protein kinase 10 (Homo sapiens) (UniProt O94804); conditions: Compound concentration 1000.0 nM
[36] = target: Receptor-type tyrosine-protein kinase FLT3 (Homo sapiens) (UniProt P36888); conditions: Compound concentration 1000.0 nM
[37] = target: Casein kinase I isoform gamma-1 (Homo sapiens) (UniProt Q9HCP0); conditions: Compound concentration 1000.0 nM

Chain of Inhibitor of nuclear factor kappa-B kinase subunit epsilon (Homo sapiens) (Q14164 whole entry): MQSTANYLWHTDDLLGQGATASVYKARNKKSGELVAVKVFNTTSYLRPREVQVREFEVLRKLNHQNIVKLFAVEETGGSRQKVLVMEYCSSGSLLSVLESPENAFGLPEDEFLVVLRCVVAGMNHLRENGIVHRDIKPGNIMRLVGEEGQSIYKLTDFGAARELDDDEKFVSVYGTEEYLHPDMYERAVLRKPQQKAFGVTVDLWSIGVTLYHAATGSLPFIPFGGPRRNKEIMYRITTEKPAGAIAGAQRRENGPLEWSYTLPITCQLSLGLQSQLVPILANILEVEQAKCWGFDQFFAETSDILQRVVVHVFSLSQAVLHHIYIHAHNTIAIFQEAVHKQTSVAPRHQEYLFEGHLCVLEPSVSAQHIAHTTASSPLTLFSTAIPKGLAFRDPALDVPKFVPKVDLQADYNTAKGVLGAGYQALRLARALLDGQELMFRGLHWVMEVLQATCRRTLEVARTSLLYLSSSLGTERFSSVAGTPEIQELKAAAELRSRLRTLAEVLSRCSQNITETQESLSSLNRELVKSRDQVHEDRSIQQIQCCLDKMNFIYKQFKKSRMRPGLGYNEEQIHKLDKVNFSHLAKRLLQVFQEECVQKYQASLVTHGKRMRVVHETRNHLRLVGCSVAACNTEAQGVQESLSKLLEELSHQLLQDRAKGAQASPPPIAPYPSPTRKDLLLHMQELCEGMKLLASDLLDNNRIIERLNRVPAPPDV
Chain of Serine/threonine-protein kinase RIO3 (Homo sapiens) (O14730 whole entry): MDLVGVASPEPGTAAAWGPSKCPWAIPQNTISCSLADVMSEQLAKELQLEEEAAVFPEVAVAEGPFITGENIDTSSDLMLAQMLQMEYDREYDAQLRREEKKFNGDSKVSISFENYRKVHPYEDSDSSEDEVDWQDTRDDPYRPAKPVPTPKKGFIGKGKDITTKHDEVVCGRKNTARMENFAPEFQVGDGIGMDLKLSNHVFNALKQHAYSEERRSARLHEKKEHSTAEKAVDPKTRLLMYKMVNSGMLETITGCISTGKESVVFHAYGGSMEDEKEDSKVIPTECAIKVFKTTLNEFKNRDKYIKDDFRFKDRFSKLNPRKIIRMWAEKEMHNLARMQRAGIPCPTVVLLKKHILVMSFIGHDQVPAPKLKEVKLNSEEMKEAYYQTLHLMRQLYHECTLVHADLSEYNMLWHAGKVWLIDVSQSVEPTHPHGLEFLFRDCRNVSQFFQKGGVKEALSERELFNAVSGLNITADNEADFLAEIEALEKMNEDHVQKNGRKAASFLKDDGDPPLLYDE
Chain of Mast/stem cell growth factor receptor Kit (Homo sapiens) (P10721 whole entry): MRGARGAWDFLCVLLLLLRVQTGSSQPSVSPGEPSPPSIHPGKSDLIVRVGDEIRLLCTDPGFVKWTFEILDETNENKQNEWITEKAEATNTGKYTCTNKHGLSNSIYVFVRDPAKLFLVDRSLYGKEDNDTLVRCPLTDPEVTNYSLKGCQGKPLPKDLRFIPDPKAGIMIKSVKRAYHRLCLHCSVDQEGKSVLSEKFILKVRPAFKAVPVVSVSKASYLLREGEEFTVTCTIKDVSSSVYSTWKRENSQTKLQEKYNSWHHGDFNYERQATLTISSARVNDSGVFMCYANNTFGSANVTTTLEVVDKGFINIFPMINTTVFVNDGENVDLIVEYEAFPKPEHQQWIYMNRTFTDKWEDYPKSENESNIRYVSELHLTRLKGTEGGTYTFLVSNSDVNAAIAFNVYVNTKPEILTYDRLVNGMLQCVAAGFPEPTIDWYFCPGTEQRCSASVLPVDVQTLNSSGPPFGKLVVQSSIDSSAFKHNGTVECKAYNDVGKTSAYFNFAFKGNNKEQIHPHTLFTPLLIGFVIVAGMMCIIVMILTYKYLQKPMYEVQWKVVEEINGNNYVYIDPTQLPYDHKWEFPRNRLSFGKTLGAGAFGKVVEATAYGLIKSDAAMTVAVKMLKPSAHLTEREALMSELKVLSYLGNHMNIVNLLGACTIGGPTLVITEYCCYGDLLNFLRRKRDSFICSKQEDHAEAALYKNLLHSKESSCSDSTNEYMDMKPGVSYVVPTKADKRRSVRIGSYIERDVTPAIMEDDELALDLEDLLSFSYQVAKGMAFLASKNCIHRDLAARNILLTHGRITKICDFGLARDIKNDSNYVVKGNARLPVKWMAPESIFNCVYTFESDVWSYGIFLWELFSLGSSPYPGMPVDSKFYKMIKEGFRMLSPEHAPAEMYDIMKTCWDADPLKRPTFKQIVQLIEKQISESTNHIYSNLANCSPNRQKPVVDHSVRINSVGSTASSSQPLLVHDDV
Chain of Tyrosine-protein kinase ABL1 (Homo sapiens), P00519 [E255K] (P00519 whole entry E255K): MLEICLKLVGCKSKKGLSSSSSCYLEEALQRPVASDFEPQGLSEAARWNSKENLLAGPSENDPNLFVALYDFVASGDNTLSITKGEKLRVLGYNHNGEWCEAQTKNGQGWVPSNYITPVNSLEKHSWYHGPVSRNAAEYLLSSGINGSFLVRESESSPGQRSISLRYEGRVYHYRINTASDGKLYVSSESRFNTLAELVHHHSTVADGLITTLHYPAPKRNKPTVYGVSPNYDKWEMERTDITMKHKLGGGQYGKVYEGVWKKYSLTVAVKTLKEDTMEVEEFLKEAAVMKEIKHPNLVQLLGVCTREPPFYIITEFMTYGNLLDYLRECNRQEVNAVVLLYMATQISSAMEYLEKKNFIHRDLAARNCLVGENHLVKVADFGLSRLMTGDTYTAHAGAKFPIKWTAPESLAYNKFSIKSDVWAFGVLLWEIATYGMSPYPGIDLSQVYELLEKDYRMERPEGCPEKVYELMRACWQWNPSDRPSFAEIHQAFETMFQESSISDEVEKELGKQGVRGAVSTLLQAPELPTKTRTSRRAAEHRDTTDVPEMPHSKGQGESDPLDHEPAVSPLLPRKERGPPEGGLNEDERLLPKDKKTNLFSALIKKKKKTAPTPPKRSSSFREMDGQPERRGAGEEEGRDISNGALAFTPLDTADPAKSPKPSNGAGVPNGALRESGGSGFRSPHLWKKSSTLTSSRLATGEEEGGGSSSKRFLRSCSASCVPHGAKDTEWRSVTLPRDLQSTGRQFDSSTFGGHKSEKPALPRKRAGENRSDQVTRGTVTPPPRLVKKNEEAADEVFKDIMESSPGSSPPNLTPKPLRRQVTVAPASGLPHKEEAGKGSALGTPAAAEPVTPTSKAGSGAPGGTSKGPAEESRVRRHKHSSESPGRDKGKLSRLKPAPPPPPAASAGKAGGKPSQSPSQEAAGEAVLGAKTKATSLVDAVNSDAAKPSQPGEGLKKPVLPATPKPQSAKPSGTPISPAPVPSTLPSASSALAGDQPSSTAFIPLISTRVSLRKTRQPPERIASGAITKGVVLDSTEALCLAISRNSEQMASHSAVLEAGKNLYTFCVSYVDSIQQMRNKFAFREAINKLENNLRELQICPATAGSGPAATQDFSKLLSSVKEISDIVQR
Chain of Tyrosine-protein kinase Tec (Homo sapiens) (P42680 whole entry): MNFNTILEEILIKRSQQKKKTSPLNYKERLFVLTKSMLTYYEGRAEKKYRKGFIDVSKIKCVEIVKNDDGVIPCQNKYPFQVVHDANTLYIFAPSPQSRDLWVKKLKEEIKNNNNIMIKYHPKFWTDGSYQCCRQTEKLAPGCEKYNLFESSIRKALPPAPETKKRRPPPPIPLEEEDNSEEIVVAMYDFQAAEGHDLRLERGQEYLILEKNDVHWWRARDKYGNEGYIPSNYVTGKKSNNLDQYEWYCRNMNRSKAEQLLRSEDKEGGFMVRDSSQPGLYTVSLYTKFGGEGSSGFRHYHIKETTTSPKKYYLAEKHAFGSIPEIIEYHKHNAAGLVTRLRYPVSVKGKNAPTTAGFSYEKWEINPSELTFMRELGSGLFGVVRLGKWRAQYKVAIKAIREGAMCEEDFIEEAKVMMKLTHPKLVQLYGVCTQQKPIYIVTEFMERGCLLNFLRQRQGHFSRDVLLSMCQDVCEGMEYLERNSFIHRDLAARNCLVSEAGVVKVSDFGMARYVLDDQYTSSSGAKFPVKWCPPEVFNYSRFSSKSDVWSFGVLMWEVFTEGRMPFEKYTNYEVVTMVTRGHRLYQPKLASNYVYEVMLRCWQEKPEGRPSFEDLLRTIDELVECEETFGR
Chain of Dual specificity protein kinase CLK3 (Homo sapiens) (P49761 whole entry, looked up): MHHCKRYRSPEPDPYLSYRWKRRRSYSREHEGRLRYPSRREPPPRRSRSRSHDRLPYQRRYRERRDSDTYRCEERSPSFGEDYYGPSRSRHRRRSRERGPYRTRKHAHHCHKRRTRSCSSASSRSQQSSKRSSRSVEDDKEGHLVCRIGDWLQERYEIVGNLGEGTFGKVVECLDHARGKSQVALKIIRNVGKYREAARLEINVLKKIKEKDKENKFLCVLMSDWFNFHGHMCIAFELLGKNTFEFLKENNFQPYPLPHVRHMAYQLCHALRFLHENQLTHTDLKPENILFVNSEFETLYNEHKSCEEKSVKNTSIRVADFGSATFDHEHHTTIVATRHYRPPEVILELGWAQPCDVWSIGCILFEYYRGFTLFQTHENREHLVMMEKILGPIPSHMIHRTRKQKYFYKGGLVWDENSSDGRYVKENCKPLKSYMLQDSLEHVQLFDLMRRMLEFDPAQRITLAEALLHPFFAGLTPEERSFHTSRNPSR
Chain of Serine/threonine-protein kinase NLK (Homo sapiens) (Q9UBE8 whole entry): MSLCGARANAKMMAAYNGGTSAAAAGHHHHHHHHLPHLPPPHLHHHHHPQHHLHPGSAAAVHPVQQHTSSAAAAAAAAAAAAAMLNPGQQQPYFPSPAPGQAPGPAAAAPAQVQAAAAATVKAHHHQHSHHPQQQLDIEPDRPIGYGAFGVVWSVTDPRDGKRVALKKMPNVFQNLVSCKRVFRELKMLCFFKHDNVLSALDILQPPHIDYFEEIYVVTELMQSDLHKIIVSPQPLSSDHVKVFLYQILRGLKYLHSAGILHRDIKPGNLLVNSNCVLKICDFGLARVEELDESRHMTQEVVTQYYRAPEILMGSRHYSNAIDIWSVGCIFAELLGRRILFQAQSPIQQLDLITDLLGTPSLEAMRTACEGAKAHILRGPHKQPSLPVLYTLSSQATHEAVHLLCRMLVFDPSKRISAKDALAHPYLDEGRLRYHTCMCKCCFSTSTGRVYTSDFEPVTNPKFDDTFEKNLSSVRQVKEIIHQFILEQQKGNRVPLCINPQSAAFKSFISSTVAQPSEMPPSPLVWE

O=C(NCc1ncc(C(F)(F)F)cc1Cl)c1ccc2c(c1)C1(CCS(=O)(=O)CC1)[C@@H](C1CC1)N2S(=O)(=O)c1ccc(F)cc1 [BAY-786]
inactive: residual activity [1] 89% | residual activity [2] 77% | residual activity [3] 55% | residual activity [4] 92% | residual activity [5] 100% | residual activity [6] 72% | residual activity [7] 82% | residual activity [8] 100% | residual activity [9] 74% | residual activity [10] 82% | residual activity [11] 71% | residual activity [12] 100% | residual activity [13] 72% | residual activity [14] 72% | residual activity [15] 100% | residual activity [16] 85% | residual activity [17] 100% | residual activity [18] 69% | residual activity [19] 90% | residual activity [20] 77% | residual activity [21] 82% | residual activity [22] 97% | residual activity [23] 100% | residual activity [24] 100% | residual activity [25] 75% | residual activity [26] 92% | residual activity [27] 100% | inhibition [28] -4.83% | inhibition [29] -3.69% | residual activity [30] 84% | residual activity [31] 100% | residual activity [32] 61% | residual activity [33] 100% | residual activity [34] 97% | residual activity [35] 94% | residual activity [36] 94% | residual activity [37] 90%

O=C(NCc1ncc(C(F)(F)F)cc1Cl)c1ccc2c(c1)C1(CCS(=O)(=O)CC1)[C@H](C1CC1)N2S(=O)(=O)c1ccc(F)cc1 [BAY-784]
inactive: residual activity [1] 100% | residual activity [2] 82% | residual activity [3] 87% | residual activity [4] 97% | residual activity [5] 100% | residual activity [6] 69% | residual activity [7] 76% | residual activity [8] 89% | residual activity [9] 83% | residual activity [10] 77% | residual activity [11] 100% | residual activity [12] 92% | residual activity [13] 100% | residual activity [14] 81% | residual activity [15] 100% | residual activity [16] 100% | residual activity [17] 91% | residual activity [18] 73% | residual activity [19] 94% | residual activity [20] 92% | residual activity [21] 100% | residual activity [22] 84% | residual activity [23] 100% | residual activity [24] 100% | residual activity [25] 95% | residual activity [26] 100% | residual activity [27] 80% | inhibition [28] -8.16% | inhibition [29] 4.13% | residual activity [30] 100% | residual activity [31] 86% | residual activity [32] 54% | residual activity [33] 100% | residual activity [34] 100% | residual activity [35] 54% | residual activity [36] 95% | residual activity [37] 86%
